This note sets out measurements from patent US20240368096A1 (Enanta Pharmaceuticals, Inc., priority 2022, published 2024).

The structures appear in SMILES notation. Bounds are passed on as bounds.

This test relates to HBV. The experiment in a line: HBV infection in HepG2-NTCP cells (HBeAg AlphaLISA in supernatants). Type of test: cell-based. The following applies: Hepatitis B virus, 192 h; HBV infection of HepG2-NTCP cells; HBeAg in supernatants at day 8 post infection; read-out: Cellular EC50. On the procedure:
HepG2-NTCP A3 cells were maintained in DMEM media supplemented with GlutaMAX™ 10% fetal bovine serum, 1% penicillin/streptomycin, and 5 μg/mL puromycin at 37° C. in a humidified atmosphere with 5% CO2 in a collagen-coated tissue culture flask.
HepG2-NTCP cells were seeded in 384 well plate containing 16,000 cells/well two days prior to the infection. On the day of infection, compounds were 3-fold serially diluted in DMSO and pre-incubated with HepG2-NTCP cells for two hours before purified HBV addition. HBV infection was carried out at 2000 GE/cell with 4% PEG, and the final concentration of DMSO is 0.5%. On day one post infection, HBV-containing media was aspirated, cells were washed once with PBS and then maintained in 2.5% DMSO containing media for the remainder of the assay.
Supernatants from infected HepG2-NTCP cells were collected at day 8 post infection, and the amount of viral antigen HBeAg was measured by HBeAg AlphaLISA detection kit (PerkinElmer) following the manufacturer's recommended protocol. Irrespective of readout, compound concentrations that reduce viral product accumulation in supernatants by […] relative to DMSO controls (EC50) are reported. EC50 ranges are as follows: A<0.1 μM; B 0.1-1 μM; C>1 μM.

Take `CCCCCNc1cc2c(cc1-c1ccc(F)c(C(=O)O)c1)S(=O)(=O)N(C)[C@H](C1CCCCC1)CN2c1ccccc1` [Example 528]: the EC50 was less than 100 nM.

As for `CC(C)CCCCCOc1cc2c(cc1-c1ccc(F)c(C(=O)O)c1)S(=O)(=O)N(C)[C@H](C1CCCCC1)CN2c1ccccc1` [Example 362], the EC50 was less than 100 nM.

Turning to `CC(C)C[C@@H]1CN(c2ccccc2)c2cc(Oc3ccccc3OC(F)(F)F)c(-c3ccc(F)c(C(=O)O)c3)cc2S(=O)(=O)N1C` [Example 437], the half-maximal effective concentration (EC50) is less than 100 nM.

As for `CN1[C@H](C2CCCCC2)CN(c2ccccc2)c2cc(OCc3ncco3)c(-c3ccc(F)c(C(=O)O)c3)cc2S1(=O)=O` [Example 344], the EC50 is less than 100 nM.

On to `COC[C@@H]1CN(c2ccccc2)c2cc(Cl)c(-c3ccc(F)c(C(=O)O)c3)cc2S(=O)(=O)N1C` [Example 95], for which the concentration for a half-maximal effect (EC50) lay within 100 to 1000 nM.

As for `CN1[C@H](CN2CCCC2)CN(c2ccccc2)c2cc(Cl)c(-c3ccc(F)c(C(=O)O)c3)cc2S1(=O)=O` [Example 110], the concentration for a half-maximal effect (EC50) is more than 1000 nM.

As for `COCOC[C@@H]1CN(c2ccccc2)c2cc(Cl)c(-c3ccc(F)c(C(=O)O)c3)cc2S(=O)(=O)N1C` [Example 97, (S)-5-(7-chloro-3-((methoxymethoxy)methyl)-2-methyl-1,1-dioxido-5-phenyl-2,3,4,5-tetrahydrobenzo[f][1,2,5]thiadiazepin-8-yl)-2-fluorobenzoic acid], the EC50 was 100 to 1000 nM.

`CN1[C@H](C2CCCCC2)CN(c2ccccc2)c2cc(OCc3cccs3)c(-c3ccc(F)c(C(=O)O)c3)cc2S1(=O)=O` [Example 335]: the half-maximal effective concentration (EC50) is less than 100 nM.

For the molecule `CN1[C@H](C2CCCCC2)CN(c2ccccc2)c2cc(Cl)c(-c3cc(NC(=O)OCC(C)(C)C#N)c(C(=O)O)s3)cc2S1(=O)=O` [Example 256], the EC50 is less than 100 nM.

On to `CN1[C@H](C2CCCCC2)CN(c2ccccc2)c2cc(OCc3cn(C)cn3)c(-c3ccc(F)c(C(=O)O)c3)cc2S1(=O)=O` [Example 389, (R)-5-(3-cyclohexyl-2-methyl-7-((1-methyl-1H-imidazol-4-yl)methoxy)-1,1-dioxido-5-phenyl-2,3,4,5-tetrahydrobenzo[f][1,2,5]thiadiazepin-8-yl)-2-fluorobenzoic acid], for which the EC50 lay within 100 to 1000 nM.

`CC(C)C[C@@H]1CN(c2ccccc2)c2cc(Cl)c(-c3cccc(CC(=O)O)c3)cc2S(=O)(=O)N1C` [Example 173]: the EC50 is more than 1000 nM.

In the case of `CN1[C@H](C2CCCCC2)CN(c2ccccc2)c2cc(OC3CC4(CCC4)C3)c(-c3ccc(F)c(C(=O)O)c3)cc2S1(=O)=O` [Example 377], the 50% effective concentration (EC50) is less than 100 nM.

Regarding `CN1[C@@H](Cc2ccc(Cl)cc2)CN(c2ccccc2)c2cc(C#N)c(-c3cccc(C(=O)O)c3)cc2S1(=O)=O` [Example 13], the concentration for a half-maximal effect (EC50) is more than 1000 nM.

Consider `Cc1nnc(COc2cc3c(cc2-c2ccc(F)c(C(=O)O)c2)S(=O)(=O)N(C)[C@H](CC(C)C)CN3c2ccccc2)o1` [Example 457], for which the EC50 was in the range of 100 to 1000 nM.

Turning to `CCCCC[C@@H](C)Oc1cc2c(cc1-c1cc(F)c(C(=O)O)s1)S(=O)(=O)N(C)[C@H](C1CCCCC1)CN2c1ccccc1` [Example 491], the EC50 fell in the range of 100 to 1000 nM.

Take `CC(C)C[C@@H]1CN(c2ccccc2)c2cc(Oc3ccc(Cl)cc3)c(-c3ccc(F)c(C(=O)O)c3)cc2S(=O)(=O)N1C` [Example 433]: the concentration giving a half-maximal response (EC50) lay within 100 to 1000 nM.

Take `COCCOc1cc2c(cc1-c1ccc(Cl)c(C(=O)O)c1)S(=O)(=O)N(C)[C@H](CC(C)C)CN2c1ccccc1` [Example 445]: the EC50 was 100 to 1000 nM.

In the case of `COCCOc1cc2c(cc1-c1cc(C)c(C(=O)O)s1)S(=O)(=O)N(C)[C@H](C1CCCCC1)CN2c1ccccc1` [Example 499], the EC50 is less than 100 nM.

Turning to `O=C(O)c1cc(-c2cc3c(cc2F)N(c2ccccc2)C[C@H]2C[C@@H](C(F)(F)F)CN2S3(=O)=O)ccc1F` [Example 10], the EC50 is more than 1000 nM.

As for `CN1[C@H](C2CCCCC2)CN(c2ccccc2)c2cc(OCc3cscn3)c(-c3ccc(F)c(C(=O)O)c3)cc2S1(=O)=O` [Example 341], the 50% effective concentration (EC50) was less than 100 nM.

For `CO[C@@H]1CCN(c2cc3c(cc2-c2ccc(F)c(C(=O)O)c2)S(=O)(=O)N(C)[C@H](C2CCCCC2)CN3c2ccccc2)C1` [Example 531], the concentration for a half-maximal effect (EC50) was less than 100 nM.

In the case of `CCCC[C@@H]1CN(c2ccccc2)c2cc(F)c(-c3ccc(N(C)C)c(C(=O)O)c3)cc2S(=O)(=O)N1C` [Example 523], the concentration giving a half-maximal response (EC50) fell in the range of 100 to 1000 nM.

With `CN1[C@H](C2CCCCC2)CN(c2ccccc2)c2cc(OCCCc3cscn3)c(-c3ccc(F)c(C(=O)O)c3)cc2S1(=O)=O` [Example 347], the concentration giving a half-maximal response (EC50) was less than 100 nM.

On to `Cc1cc(N2C[C@@H](C3CCCCC3)N(C)S(=O)(=O)c3cc(-c4ccc(F)c(C(=O)O)c4)c(Cl)cc32)ccn1` [Example 285], for which the EC50 was more than 1000 nM.

With `CCCCC1CN(c2ccccc2)c2cc(Cl)c(-c3ccc(F)c(C(=O)O)c3)cc2S(=O)(=O)N1C` (stereo not shown) [Example 71], the concentration giving a half-maximal response (EC50) fell in the range of 100 to 1000 nM.

As for `CC1CN(c2ccccc2)c2cc(F)c(-c3ccc(F)c(C(=O)O)c3)cc2S(=O)(=O)N1C` (stereo not shown) [Example 1, 2-fluoro-5-(7-fluoro-2,3-dimethyl-1,1-dioxido-5-phenyl-2,3,4,5-tetrahydrobenzo[f][1,2,5]thiadiazepin-8-yl)benzoic acid], the half-maximal effective concentration (EC50) was more than 1000 nM.

Take `CN1[C@H](c2ccccc2)CN(c2ccccc2)c2cc(Cl)c(-c3ccc(F)c(C(=O)O)c3)cc2S1(=O)=O` [Example 54]: the 50% effective concentration (EC50) is 100 to 1000 nM.

On to `CC(C)C[C@@H]1CN(c2ccccc2)c2cc(Cl)c(-c3cccc(P(=O)(O)O)c3)cc2S(=O)(=O)N1C` [Example 233], for which the concentration for a half-maximal effect (EC50) was in the range of 100 to 1000 nM.

Consider `CN1[C@H](C2CCCCC2)CN(c2ccccc2)c2cc(Oc3cccc(F)c3F)c(-c3ccc(F)c(C(=O)O)c3)cc2S1(=O)=O` [Example 402], for which the concentration for a half-maximal effect (EC50) is less than 100 nM.

`CCCCCCCC[C@@H]1CN(c2ccccc2)c2cc(Cl)c(-c3ccc(F)c(C(=O)O)c3)cc2S(=O)(=O)N1C` [Example 82, (R)-5-(7-chloro-2-methyl-3-octyl-1,1-dioxido-5-phenyl-2,3,4,5-tetrahydrobenzo[f][1,2,5]thiadiazepin-8-yl)-2-fluorobenzoic acid]: the EC50 is more than 1000 nM.

As to `CCOC(=O)Nc1cc(-c2cc3c(cc2F)N(c2ccccc2)C[C@@H](C2CCCCC2)N(C)S3(=O)=O)sc1C(=O)O` [Example 265, (R)-5-(3-cyclohexyl-7-fluoro-2-methyl-1,1-dioxido-5-phenyl-2,3,4,5-tetrahydrobenzo[f][1,2,5]thiadiazepin-8-yl)-3-((ethoxycarbonyl)amino)thiophene-2-carboxylic acid], the concentration giving a half-maximal response (EC50) was less than 100 nM.

For the molecule `CN1[C@H](C2CCCCC2)CN(c2ccccc2)c2cc(Cl)c(-c3ccc(NS(=O)(=O)Cc4ccccc4)c(C(=O)O)c3)cc2S1(=O)=O` [Example 269], the half-maximal effective concentration (EC50) was less than 100 nM.

Regarding `CC(C)C[C@@H]1CN(c2ccccc2)c2cc(Oc3ccc(Cl)c(C(F)(F)F)c3)c(-c3ccc(F)c(C(=O)O)c3)cc2S(=O)(=O)N1C` [Example 434], the EC50 is 100 to 1000 nM.

As to `CCCC[C@@H]1CN(c2ccccc2)c2cc(-n3cncn3)c(-c3ccc(F)c(C(=O)O)c3)cc2S(=O)(=O)N1C` [Example 526], the concentration giving a half-maximal response (EC50) was less than 100 nM.

Turning to `CC(C)CCCCOc1cc2c(cc1-c1ccc(F)c(C(=O)O)c1)S(=O)(=O)N(C)[C@H](C1CCCCC1)CN2c1ccccc1` [Example 361], the concentration giving a half-maximal response (EC50) was less than 100 nM.

Consider `CN1[C@H](C2CCCCC2)CN(c2ccccc2)c2cc(OC3CCC3)c(-c3ccc(NC(=O)OC4CCC4)c(C(=O)O)c3)cc2S1(=O)=O` [Example 482], for which the EC50 was less than 100 nM.

Consider `CN1[C@H](C2CCCCC2)CN(c2ccccc2)c2cc(O[C@H]3C[C@H](F)C3)c(-c3ccc(F)c(C(=O)O)c3)cc2S1(=O)=O` [Example 381], for which the 50% effective concentration (EC50) was less than 100 nM.

As to `CN1[C@H](C2CCCCC2)CN(c2ccccc2)c2cc(N3CC4(CCCC4)C3)c(-c3ccc(F)c(C(=O)O)c3)cc2S1(=O)=O` [Example 533], the concentration giving a half-maximal response (EC50) is 100 to 1000 nM.

Turning to `CC(C)C[C@@H]1CN(c2ccccc2)c2cc(Cl)c(-c3cccc(S(C)(=N)=O)c3)cc2S(=O)(=O)N1C` (stereo partly shown) [Example 184], the EC50 is more than 1000 nM.

On to `CN1[C@H](C2CCCCC2)CN(c2ccccc2)c2cc(Cl)c(-c3cccc(S(N)(=O)=O)c3)cc2S1(=O)=O` [Example 175], for which the EC50 is more than 1000 nM.

For `CC(C)C[C@@H]1CN(c2ccccc2)c2cc(Cl)c(-c3ccc(F)c(C(=O)O)c3)cc2S(=O)(=O)N1C` [Example 59, (R)-5-(7-chloro-3-isobutyl-2-methyl-1,1-dioxido-5-phenyl-2,3,4,5-tetrahydrobenzo[f][1,2,5]thiadiazepin-8-yl)-2-fluorobenzoic acid], the EC50 is less than 100 nM.

Consider `CC(C)C[C@@H]1CN(c2ccccc2)c2cc(C3CCN(C(=O)OC(C)(C)C)CC3)c(-c3ccc(F)c(C(=O)O)c3)cc2S(=O)(=O)N1C` [Example 592], for which the EC50 lay in the range of 100 to 1000 nM.

With `CN1[C@H](C2CC(F)(F)C2)CN(c2ccccc2)c2cc(Cl)c(-c3ccc(Cl)c(C(=O)O)c3)cc2S1(=O)=O` [Example 32], the EC50 was in the range of 100 to 1000 nM.

Regarding `CN1[C@H](C2CC(F)(F)C2)CN(c2ccccc2)c2cc(Cl)c(-c3ccc(F)c(C(=O)O)c3)cc2S1(=O)=O` [Example 30], the 50% effective concentration (EC50) is 100 to 1000 nM.

With `O=C(O)c1cccc(-c2cc3c(cc2F)N(c2ccccc2)C[C@H]2C[C@@H](C(F)(F)F)CN2S3(=O)=O)c1` [Example 9], the EC50 fell in the range of 100 to 1000 nM.

For the molecule `CC(C)C[C@@H]1CN(c2ccccc2)c2cc(OCC34CCCN3CCC4)c(-c3ccc(F)c(C(=O)O)c3)cc2S(=O)(=O)N1C` [Example 450], the half-maximal effective concentration (EC50) was more than 1000 nM.

For orientation: EC50 means the concentration that produces a half-maximal response.
